Consider four compounds from patent US20020006661A1, “Controlling gene expression in living cells” (University of Massachusetts, a Massachusetts corporation, priority 1998, published 2002).

The test system of data set [1] is H2-RSETA mRNA (H10 and H19 in tandem in the 5′ UTR). The experiment in a line: Wheat germ in vitro translation of H2-RSETA mRNA. In kind it is biochemical. The conditions noted are these: 0, 40 or 80 μM H33258, wheat germ extract. On the procedure:
(§1) FIG. 10. is a histogram summarizing SDS-PAGE densitometry data from in vitro translation experiments. RNA transcripts containing 0 (RSETA) or 2 copies of an H33258 aptamer (H2-RSETA) were translated in a wheat germ extract in the presence of ^35S-methionine and 0, 40 or 80 μM H33258. Protein products were subjected to SDS-PAGE and quantitated by densitometry. For each transcript, translation in the absence of drug was set at 100%.
(§2) In vitro transcription reactions contained 5 μg pRSETA (or RSET derivative), 0.5 mM m^7G(5′)G, 0.5 mM ATP, CTP, UTP, 0.05 mM GTP, 10 mM DTT and 40 U T7 RNA polymerase in 50 μl of a solution of 40 mM Tris-HCl pH 7.5, 6 mM MgCl2, 2 mM spermidine, 10 mM NaCl. Following incubation for 1 hour at 37° C., RNA was purified by phenol:chloroform extraction, ethanol precipitation and resuspended in 30 μl H2O. Translation reactions were carried out in 10 μl containing 5 μl wheat germ extract, 0.8 μl 1 mM amino acid mixture (minus methionine), 2 μl of RNA transcript (described above), 0.5 μl [^35S] methionine (1200 Ci/mmole) and 0-80 μM drug. Reactions were incubated at 25{square root} C. for 15 minutes and terminated by addition of 2X sample loading buffer. Translation products were separated by electrophoresis on an 18% polyacrylamide gel, visualized by autoradiography, and quantitated by densitometry.

The conditions of data set [2]: cited from earlier work; for Cell permeability: known.
For data set [3] the following is noted: known; cited from earlier work.
For data set [4], the system named is SVH2β Gal (β-galactosidase reporter with H10 and H19 in the 5′ UTR) in CHO cells. The experiment in a line: β-galactosidase reporter expression in transfected CHO cells, SVH2β gal. The class given is cell-based. Particulars: 24 hours, 0, 5 or 10 μM H33342, dose-dependent. On the procedure:
(§3) FIG. 11 is a histogram summarizing data from in vivo expression experiments. H33258 aptamers H10 and H19 were cloned in tandem into the 5′ UTR of a β-galactosidase reporter gene (SVβ gal; Promega) to generate SVH2β gal. CHO cells were cotransfected with 1 μg SVβ gal or SVH2β gal and 1 μg of a luciferase expression vector (pGL3). Transfected cells were grown in the presence of […]. Twenty-four hours after transfection, cell extracts were prepared, and β-galactosidase and luciferase activities were determined.
(§4) To test whether this small molecule-aptamer interaction could be used to control gene expression in vivo, one copy of H10 and H19 were inserted into the 5′ UTR of a mammalian β-galactosidase expression plasmid SVβ Gal (Promega), generating the construct SVH2β gal. CHO cells were cotransfected with SVH2β Gal or as a control the parental vector, SVβ Gal, and a luciferase reporter gene to provide an internal control. Following transfection, cells were grown for 24 hours in the presence of 0, 5 or 10 μM H33342 and analyzed for β-galactosidase and luciferase activities.
(§5) H33258 aptamers, H10 and H19, were cloned in tandem into the 5′ UTR of a β-galactosidase reporter gene (SVβ gal, Promega) to generate SVH2β gal. […] 24 hours post-transfection cell extracts were prepared and β-galactosidase and luciferase activities were determined.

In data set [5] the test system is parental expression vector SVβ Gal in CHO cells. The experiment in a line: β-galactosidase reporter expression in transfected CHO cells, parental SVβ Gal. The class given is cell-based. The conditions noted are these: 24 hours, 0, 5 or 10 μM H33342, data not shown. On the procedure:
as §3, §4, §5

Data set [6] relates to luciferase reporter (pGL3) in CHO cells. Description: Luciferase internal control reporter in transfected CHO cells. The class given is cell-based. The conditions noted are these: 24 hours, 0, 5 or 10 μM H33342. The method, then:
as §3, §4, §5

Data set [7] concerns E. coli BL-21 cells expressing RSETA, kan or tob aptamers. Description: Growth of E. coli expressing antibiotic aptamers in antibiotic-containing medium. In kind it is cell-based. Particulars: 10 mM antibiotic, liquid culture; for Growth of bl-kan1 (kanamycin aptamer) in the presence of antibiotic: strain bl-kan1; for Growth of bl-tob1 (tobramycin aptamer) in the presence of antibiotic: strain bl-tob1. The method, then:
FIGS. 3A-3E are growth curves of E. coli expressing antibiotic aptamers. Overnight cultures of BL-21 cells transformed with plasmids expressing RSETA, tob1, tob3, kan1 or kan3 were diluted 100-fold into medium containing the indicated concentration of aminoglycoside antibiotic. Optical density (660 nm) was measured at fixed intervals over 8 hours of growth at 37° C.
As an initial test for the ability of these aptamers to function in vivo, we asked whether following expression in E. coli the aptamer would sequester the cognate antibiotic thereby conferring a specific drug-resistant phenotype. Toward this end, one or three copies of the kanamycin A (kan) or the tobramycin (tob) aptamer were cloned into the T7 RNA polymerase-driven expression vector PRSETA (Invitrogen), and transformed into a bacterial strain containing an IPTG-inducible T7 RNA polymerase. Bacterial strains were grown in liquid culture overnight and then diluted into antibiotic-containing medium. In the absence of drug, bacterial strains expressing no aptamer (bl-RSETA), the kanamycin aptamer (bl-kan1), or the tobramycin aptamer (bl-tob1) grew similarly (FIG. 3A). […] The partial-resistance of bl-kan1 to tobramycin (our unpublished data).

In data set [8] the test system is tob3-RSETA mRNA (three copies of the tob aptamer in the 5′ UTR). Description: Wheat germ in vitro translation of tob3-RSETA mRNA. In kind it is biochemical. The conditions noted are these: 0, 30 or 60 μM drug, wheat germ extract. On the procedure:
(§6) FIG. 4. is a histogram showing percent translation of mRNA in a wheat germ in vitro translation system containing 0 (RSETA) or 3 copies of the tob aptamer cloned into the 5′ UTR of RSETA (tob3-RSETA) and 0, 30 or 60 μM tobramycin or kanamycin A. Protein products were analyzed by SDS-PAGE and quantitated by densitometry. For each transcript, translation in the absence of drug was set at 100%.
A test mRNA was constructed containing three copies of the tob aptamer inserted in the 5′ UTR of RSETA (tob3-RSETA). In vitro translation reactions were performed in the presence of 0, 30 or 60 μM tobramycin or kanamycin A.
as §2, with “Reactions were incubated at 25{square root} C. for 15 minutes and terminated by addition of 2X sample loading buffer.” left out

The subject of the next data set is control RSETA mRNA. The experiment in a line: Wheat germ in vitro translation of control RSETA mRNA. The class given is biochemical. Particulars: all concentrations tested, wheat germ extract. On the procedure: as §6, §1
A test mRNA was constructed containing three copies of the tob aptamer inserted in the 5′ UTR of RSETA (tob3-RSETA). […]
In vitro transcription reactions contained 5 μg pRSETA (or RSET derivative), 0.5 mM m^7G(5′)G, 0.5 mM ATP, CTP, UTP, 0.05 mM GTP, 10 mM DTT and 40 U T7 RNA polymerase in 50 μl of a solution of 40 mM Tris-HCl pH 7.5, 6 mM MgCl2, 2 mM spermidine, 10 mM NaCl. […] Translation products were separated by electrophoresis on an 18% polyacrylamide gel, visualized by autoradiography, and quantitated by densitometry.

Take `CN1CCN(c2ccc3[nH]c(-c4ccc5[nH]c(-c6ccc(O)cc6)nc5c4)nc3c2)CC1` [H33258]: the “In vitro translation of H2-RSETA mRNA” value in data set [1] is on record as “inhibited in vitro translation of H2-RSETA”. For the same compound, the Cell permeability entry in [2] is “cell-permeable”. Further, the Toxicity result in data set [3] is given as “relatively non-toxic”.
Turning to `CCOc1ccc(-c2nc3ccc(-c4nc5ccc(N6CCN(C)CC6)cc5[nH]4)cc3[nH]2)cc1` [H33342], the “Reduction of β-galactosidase activity from SVH2β Gal” value in [4] is on record as “greater than 90%”. The “Expression of parental expression vector SVβ Gal” value in data set [5] is “not inhibited”. In addition, in [6], the “Expression of the luciferase reporter” value is recorded as “not inhibited”. In data set [2], the “Cell permeability relative to H33258” value is reported as “approximately ten-fold more cell-permeable” and the Cell permeability entry is listed as “cell-permeable”. Besides, in data set [3], the Toxicity result is “relatively non-toxic”.
Turning to `NC[C@H]1O[C@H](O[C@H]2[C@H](O)[C@@H](O[C@H]3O[C@H](CO)[C@@H](O)[C@H](N)[C@H]3O)[C@H](N)C[C@@H]2N)[C@H](O)[C@@H](O)[C@@H]1O` [kanamycin A], the “Growth of bl-RSETA (no aptamer) in the presence of antibiotic” value in data set [7] (strain bl-RSETA) is on record as “neglible”. For the same compound, in [7], the “Growth of bl-kan1 (kanamycin aptamer) in the presence of antibiotic” value is on record as “grew to saturation” and the “Growth of bl-tob1 (tobramycin aptamer) in the presence of antibiotic” value is recorded as “neglible”. Also, in data set [8], the “In vitro translation of tob3-RSETA mRNA” value is “not inhibited”. Further, the “In vitro translation of control RSETA mRNA” value in the data set on control RSETA mRNA is on record as “unaffected”.
As for `NC[C@H]1O[C@H](O[C@H]2[C@H](O)[C@@H](O[C@H]3O[C@H](CO)[C@@H](O)[C@H](N)[C@H]3O)[C@H](N)C[C@@H]2N)[C@H](N)C[C@@H]1O` [tobramycin], in [7], the “Growth of bl-kan1 (kanamycin aptamer) in the presence of antibiotic” value is on record as “grew to a sub-saturating level” and the “Growth of bl-tob1 (tobramycin aptamer) in the presence of antibiotic” value is “grew to saturation”. Besides, the “In vitro translation of tob3-RSETA mRNA” value in [8] is recorded as “inhibited in vitro translation of the tob3-RSETA mRNA in a dose-dependent fashion”. In addition, in the data set on control RSETA mRNA, the “In vitro translation of control RSETA mRNA” value is “unaffected”.
